This is an account of results in ChEMBL document CHEMBL5107966, “Cascade synthetic strategies opening access to medicinal-relevant aliphatic 3- and 4-membered N-heterocyclic scaffolds” (Eur J Med Chem, 2022).

The structures appear in SMILES notation. Converted amounts (≈) assume the structure as drawn.

For one experiment, the system named is Enterococcus faecium. In words: Antimicrobial activity against Enterococcus faecium incubated for 18 to 24 hrs. It is filed as functional. To be noted: time 18-24 hrs.
A further experiment deals with Enterobacter cloacae. The experiment can be described thus: Antimicrobial activity against Enterobacter cloacae incubated for 18 to 24 hrs. The format is functional. To be noted: time 18-24 hrs.
In experiment [1] the test system is Staphylococcus aureus. In words: Antimicrobial activity against Staphylococcus aureus incubated for 18 to 24 hrs. It is filed as functional. To be noted: time 18-24 hrs.
For experiment [2], the system named is Pseudomonas aeruginosa. The experiment can be described thus: Antimicrobial activity against Pseudomonas aeruginosa incubated for 18 to 24 hrs. It is filed as functional. The conditions noted are these: time 18-24 hrs.
For experiment [3], the system named is RAW264.7. In words: Inhibition of NO release in mouse RAW264.7 incubated for 15 mins by fluoroscence-luminescence reader infinite M200 Pro analysis. The conditions noted are these: RAW264.7, 0.25 h. The format is functional, cell-based.
Experiment [4] concerns RAW264.7. In words: Cytotoxicity against mouse RAW264.7 by WST-1 vital dye reagent method. The format is functional, cell-based. Background: Tetrazolium dyes change colour on reduction, which living cells bring about.
The next experiment relates to HepG2. The experiment can be described thus: Antiproliferative activity against human HepG2 cells assessed as reduction in cell viability incubated for 72 hrs by CCK-8 assay. To be noted: HepG2, 72 h. The format is functional, cell-based.
The test system of the next experiment is U-251. In words: Antiproliferative activity against human U-251 cells assessed as reduction in cell viability incubated for 72 hrs by CCK-8 assay. The format is functional, cell-based. To be noted: U-251, 72 h.
The next experiment concerns A-431. The experiment can be described thus: Antiproliferative activity against human A-431 cells assessed as reduction in cell viability incubated for 72 hrs by CCK-8 assay. The format is functional, cell-based. To be noted: A-431, 72 h.
Experiment [5] has as its system HCT-116. In words: cells. The conditions noted are these: Homo sapiens, HCT-116, 72 h.
Experiment [6] concerns HCT-116. In words: Cytotoxicity against human HCT-116 cells assessed as cell viability incubated for 24 hrs by MTT assay. The conditions noted are these: HCT-116, 24 h. The format is functional, cell-based.
The subject of the next experiment is A2780. The experiment can be described thus: Cytotoxicity against human A2780 cells. It is filed as functional, cell-based.
For experiment [7], the system named is HCT-116. In words: Cytotoxicity against human HCT-116 cells. The format is functional, cell-based.
In a further experiment the test system is HeLa. In words: Cytotoxicity against human HeLa cells.
A further experiment relates to A549. The experiment can be described thus: Cytotoxicity against human A549 cells.
A further experiment has as its system Escherichia coli. The experiment can be described thus: Antimicrobial activity against Escherichia coli ATCC 8739. It is filed as functional.
Experiment [8] has as its system Pseudomonas aeruginosa. The experiment can be described thus: Antimicrobial activity against Pseudomonas aeruginosa MCCB 0035. The format is functional.
In experiment [9] the test system is Staphylococcus aureus. The experiment can be described thus: Antimicrobial activity against Staphylococcus aureus ATCC 29213. The format is functional.
The next experiment relates to Aspergillus niger. The experiment can be described thus: Antimicrobial activity against Aspergillus niger […]. It is filed as functional.
Another experiment concerns Candida albicans. In words: Antimicrobial activity against Candida albicans NCIM 2087. The format is functional.
The subject of a further experiment is Aspergillus fumigatus. In words: Antimicrobial activity against Aspergillus fumigatus NCIM 2081. It is filed as functional.

As to `O=C(O)C1N=C1c1ccccc1` (configuration not stated), the minimal inhibitory concentration (MIC) in the experiment on Enterococcus faecium, in the experiment with Enterobacter cloacae, in the experiment on Staphylococcus aureus [1] and in the experiment with Pseudomonas aeruginosa [2] was 9 µg/mL (≈ 55.8 µM) throughout.
Take `O=C1[C@@H](Oc2ccc(Cl)cc2Cl)[C@@H](c2ccc([N+](=O)[O-])cc2)N1CCCN1CCOCC1`: the IC50 in the experiment with RAW264.7 [3] worked out at 4.14 µM; in the experiment with RAW264.7 [4], 291 µM.
For the compound `COc1cc(-c2cc(C3CN(c4cccc(C#N)n4)C3)ccc2OC)ccn1`, the EC50 in the experiment on HepG2 amounted to 0.46 µM; with U-251, 1.2 µM; in the experiment on A-431 it was 0.7 µM; in the experiment on HCT-116 [5] it was 15 µM.
Regarding `CCOP(=O)(O)C1CN1C(C)c1ccc2ccccc2c1` (configuration not stated), the IC50 in the experiment with HCT-116 [6] is 12.3 µM.
Take `Cc1ccc(C(OC(=O)C2N=C2c2ccccc2Br)C(=O)NC(C)(C)C)cc1` (configuration not stated): the MIC amounted to 16 µg/mL (≈ 36.1 µM) in the experiment on Enterococcus faecium, 75 µg/mL (≈ 169 µM) in the experiment on Enterobacter cloacae, 16 µg/mL (≈ 36.1 µM) against Staphylococcus aureus [1] and 150 µg/mL (≈ 338 µM) against Pseudomonas aeruginosa [2].
With `CCOP(=O)(O)C1CN1Cc1ccccc1` (configuration not stated), the IC50 with HCT-116 [6] is 7.79 µM.
As to `Nc1cccc([C@@H]2[C@H](Oc3ccc4ccccc4c3)C(=O)N2CCCN2CCOCC2)c1`, the IC50 in the experiment on RAW264.7 [3] is 5.73 µM; in the experiment with RAW264.7 [4], above 500 µM.
Regarding `CCOP(=O)(O)C1CN1C1CCCCC1` (configuration not stated), in the experiment with HCT-116 [6], the IC50 worked out at 16.1 µM.
Turning to `COc1ccc(C2CN(c3cccc(C#N)n3)C2)cc1-c1ccnc(N)c1`, the EC50 in the experiment on HepG2 was found to be 5.66 µM; in the experiment on U-251, 0.03 µM; with HCT-116 [5], 0.36 µM.
As for `O=C1[C@@H](Oc2ccc(Cl)cc2)[C@@H](c2ccccc2[N+](=O)[O-])N1N1CCOCC1`, the values for the half-inhibitory concentration (IC50) with RAW264.7 [3] and in the experiment on RAW264.7 [4] were 7.92 µM and above 500 µM, respectively.
With `COc1ccc(C2NC2c2cc(OC)c(OC)c(OC)c2)cc1` (configuration not stated), the IC50 in the experiment on A2780 is 4.68 µM; in the experiment on HCT-116 [7] it was 5.44 µM; in the experiment with HeLa, 4.93 µM; with A549, 8.74 µM.
With `Cc1ccc(S(=O)(=O)N2C(=O)C(Cl)[C@H]2c2ccc(F)cc2)cc1` (some centres not stated), the MIC in the experiment on Escherichia coli is 0.5 µg/mL (≈ 1.41 µM); with Pseudomonas aeruginosa [8] it was 4 µg/mL (≈ 11.3 µM); against Staphylococcus aureus [9], 1 µg/mL (≈ 2.83 µM); with Aspergillus niger, 8 µg/mL (≈ 22.6 µM); in the experiment on Candida albicans, 2 µg/mL (≈ 5.65 µM); against Aspergillus fumigatus, 2 µg/mL (≈ 5.65 µM).
With `Cc1ccc(S(=O)(=O)N2C(=O)C(Cl)[C@H]2c2ccccc2F)cc1` (some centres not stated), the MIC in the experiment with Escherichia coli was 4 µg/mL (≈ 11.3 µM); in the experiment on Pseudomonas aeruginosa [8] it was 32 µg/mL (≈ 90.4 µM); in the experiment on Staphylococcus aureus [9], 4 µg/mL (≈ 11.3 µM); in the experiment on Aspergillus niger, 16 µg/mL (≈ 45.2 µM); with Candida albicans it was 16 µg/mL (≈ 45.2 µM); with Aspergillus fumigatus, 4 µg/mL (≈ 11.3 µM).
With `Cc1ccc(S(=O)(=O)N2C(=O)C(Cl)[C@H]2c2cccc(F)c2)cc1` (some centres not stated), the MIC with Escherichia coli is 2 µg/mL (≈ 5.65 µM); in the experiment with Pseudomonas aeruginosa [8], 16 µg/mL (≈ 45.2 µM); against Staphylococcus aureus [9], 8 µg/mL (≈ 22.6 µM); in the experiment with Aspergillus niger it was 16 µg/mL (≈ 45.2 µM); in the experiment with Candida albicans, 8 µg/mL (≈ 22.6 µM); in the experiment with Aspergillus fumigatus, 16 µg/mL (≈ 45.2 µM).
Regarding `CC1(C)S[C@@H]2[C@H](NC(=O)[C@H](N)c3ccccc3)C(=O)N2[C@H]1C(=O)O` [AMPICILLIN], the MIC turned out to be 1 µg/mL (≈ 2.86 µM) against Escherichia coli, 4 µg/mL (≈ 11.4 µM) in the experiment on Pseudomonas aeruginosa [8] and 2 µg/mL (≈ 5.72 µM) in the experiment on Staphylococcus aureus [9].
Take `CC[C@@]1(O)C(=O)OCc2c1cc1n(c2=O)Cc2cc3ccccc3nc2-1` [CAMPTOTHECIN]: the 50% inhibitory concentration (IC50) with HCT-116 [6] was determined as 0.00201 µM.
Consider `Clc1ccccc1C(c1ccccc1)(c1ccccc1)n1ccnc1` [CLOTRIMAZOLE], for which the MIC with Aspergillus niger came out at 16 µg/mL (≈ 46.4 µM); against Candida albicans, 4 µg/mL (≈ 11.6 µM); with Aspergillus fumigatus, 1 µg/mL (≈ 2.9 µM).
For `COc1cccc2c1C(=O)c1c(O)c3c(c(O)c1C2=O)C[C@@](O)(C(=O)CO)C[C@@H]3O[C@H]1C[C@H](N)[C@H](O)[C@H](C)O1` [DOXORUBICIN], the EC50 with HepG2 was 0.67 µM; with U-251 it was 0.07 µM; in the experiment on A-431 it was 0.7 µM; in the experiment with HCT-116 [5] it was 0.16 µM.
Consider `COc1cc([C@@H]2c3cc4c(cc3[C@@H](O[C@@H]3O[C@@H]5CO[C@@H](C)O[C@H]5[C@H](O)[C@H]3O)[C@H]3COC(=O)[C@H]23)OCO4)cc(OC)c1O` [ETOPOSIDE], for which the IC50 in the experiment on HCT-116 [6] came out at 26.1 µM.
As for `Cc1cc(NS(=O)(=O)c2ccc(N)cc2)no1` [SULFAMETHOXAZOLE], the MIC came to 4 µg/mL (≈ 15.8 µM) in the experiment on Enterococcus faecium, 8 µg/mL (≈ 31.6 µM) against Enterobacter cloacae, 16 µg/mL (≈ 63.2 µM) against Staphylococcus aureus [1] and 8 µg/mL (≈ 31.6 µM) against Pseudomonas aeruginosa [2].

Usually MIC stands for the smallest concentration in the dilution series that meets the test's criterion for growth inhibition. A lower MIC goes with a more susceptible organism. One may read the IC50 as the point on the concentration scale where inhibition reaches its midpoint. Usually EC50 stands for the concentration needed to bring the measured effect to its halfway point.
